Test results from ChEMBL document CHEMBL1201862, “PubChem BioAssay data set” (2004).
Calls of active or inactive are those of the source.

Assays:
cells [1] = type: functional, cell-based
BJ [2] = assay: cytotoxicity toward BJ-TERT-LT-ST fibroblasts, dose response, cell-based, RAS-independent, luminescence (AID 1935); type: functional; details: Homo sapiens;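 also: BJ fibroblasts immortalized with TERT plus LT and ST oncogenes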
cells [3] = type: functional, cell-based; remark: listed apart in the source
Hexokinase HKDC1 = biological target: T1, Hexokinase HKDC1 (Homo sapiens, UniProt Q2TB90); assay: HKDC1 hexokinase inhibitors, dose response, biochemical, W721R variant (AID 504729); type: functional
T1 sequence (Q2TB90 whole entry): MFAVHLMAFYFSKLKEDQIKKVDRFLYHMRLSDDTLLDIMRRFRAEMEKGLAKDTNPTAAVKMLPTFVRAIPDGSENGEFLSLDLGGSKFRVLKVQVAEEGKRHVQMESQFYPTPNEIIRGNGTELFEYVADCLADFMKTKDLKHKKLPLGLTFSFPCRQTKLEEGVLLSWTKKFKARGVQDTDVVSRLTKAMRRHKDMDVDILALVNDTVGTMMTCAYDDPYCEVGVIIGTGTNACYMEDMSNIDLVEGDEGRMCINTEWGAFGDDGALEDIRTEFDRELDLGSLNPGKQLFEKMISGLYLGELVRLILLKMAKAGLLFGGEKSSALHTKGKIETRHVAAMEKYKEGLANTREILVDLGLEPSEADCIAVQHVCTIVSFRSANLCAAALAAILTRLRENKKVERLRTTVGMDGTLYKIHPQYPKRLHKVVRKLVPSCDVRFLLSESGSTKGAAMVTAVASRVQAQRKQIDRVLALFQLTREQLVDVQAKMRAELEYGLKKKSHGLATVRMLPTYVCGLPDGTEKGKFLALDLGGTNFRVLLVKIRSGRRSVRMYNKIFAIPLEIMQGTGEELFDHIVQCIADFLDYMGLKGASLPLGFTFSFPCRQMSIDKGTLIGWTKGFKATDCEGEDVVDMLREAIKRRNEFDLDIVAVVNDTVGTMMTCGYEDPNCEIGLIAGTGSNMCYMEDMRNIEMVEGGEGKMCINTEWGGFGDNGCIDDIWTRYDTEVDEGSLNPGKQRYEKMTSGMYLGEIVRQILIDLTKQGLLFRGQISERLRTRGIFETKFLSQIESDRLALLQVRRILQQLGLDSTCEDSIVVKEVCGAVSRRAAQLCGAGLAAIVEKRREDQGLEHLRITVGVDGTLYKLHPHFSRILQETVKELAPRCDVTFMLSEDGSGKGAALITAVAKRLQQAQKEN

[4] = Fluorescence-based cell-based high throughput dose response assay for inhibitors of the interaction of nucleotide-binding oligomerization domain containing 2 (NOD2) and the receptor-interacting serine-threonine kinase 2 (RIPK2).; type: functional; details: Homo sapiens
BJ [5] = assay: cytotoxicity toward BJ-TERT fibroblasts, dose response, cell-based, RAS-independent, luminescence (AID 1933); type: functional; details: Homo sapiens
BJ [6] = assay: cells; type: functional, cell-based; details: Homo sapiens
Vero [7] = assay: cells; type: functional; details: Chlorocebus sabaeus
[8] = Luminescent dose response cell-based high throughput screening assay for inhibitors of the Janus kinase 2 mutant JAK2V617F. [Related pubchem assays: 1446 (Primary screen.), 1521 (Confirmation assay.), 1486 (Counter screen.)]; type: functional
[9] = cytotoxicity toward DRD oncogenic fibroblasts, dose response, cell-based, non-viral oncogenic, luminescence (AID 1934); type: functional; details: Homo sapiens
Ephrin type-A receptor 4 = Ephrin type-A receptor 4 (Mus musculus, UniProt Q03137); assay: inhibitors of EphA4 binding to KYL peptide, primary screen, biochemical, colorimetric, mouse EphA4 (AID 689); type: functional
Ephrin type-A receptor 4, sequence (Q03137 whole entry): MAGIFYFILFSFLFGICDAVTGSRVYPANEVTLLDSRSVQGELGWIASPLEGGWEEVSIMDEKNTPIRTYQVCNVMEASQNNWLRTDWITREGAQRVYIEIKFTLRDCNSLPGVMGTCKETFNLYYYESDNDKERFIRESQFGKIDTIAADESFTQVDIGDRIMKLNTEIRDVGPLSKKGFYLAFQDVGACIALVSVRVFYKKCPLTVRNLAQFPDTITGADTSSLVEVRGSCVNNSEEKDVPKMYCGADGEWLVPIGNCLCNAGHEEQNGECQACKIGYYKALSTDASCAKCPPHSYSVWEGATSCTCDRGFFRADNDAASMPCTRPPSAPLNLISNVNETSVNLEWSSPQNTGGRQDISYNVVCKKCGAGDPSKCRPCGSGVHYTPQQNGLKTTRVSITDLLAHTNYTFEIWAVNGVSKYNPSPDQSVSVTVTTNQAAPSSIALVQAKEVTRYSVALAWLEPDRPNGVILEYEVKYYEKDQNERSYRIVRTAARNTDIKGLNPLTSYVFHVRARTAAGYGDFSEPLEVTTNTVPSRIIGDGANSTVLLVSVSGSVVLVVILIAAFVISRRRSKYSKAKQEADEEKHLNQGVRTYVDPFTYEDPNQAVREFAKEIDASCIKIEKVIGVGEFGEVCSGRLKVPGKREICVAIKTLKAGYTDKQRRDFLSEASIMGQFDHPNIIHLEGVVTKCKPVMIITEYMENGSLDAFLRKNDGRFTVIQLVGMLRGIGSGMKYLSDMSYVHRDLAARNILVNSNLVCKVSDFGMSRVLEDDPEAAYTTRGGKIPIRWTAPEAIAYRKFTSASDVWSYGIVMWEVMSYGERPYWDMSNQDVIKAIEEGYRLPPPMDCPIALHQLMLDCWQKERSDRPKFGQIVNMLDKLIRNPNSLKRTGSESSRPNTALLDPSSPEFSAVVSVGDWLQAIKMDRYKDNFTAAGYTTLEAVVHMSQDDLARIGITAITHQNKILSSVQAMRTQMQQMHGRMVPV

[10] = biological target: Protein-tyrosine kinase 2-beta (Homo sapiens, UniProt Q14289);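 also: potency of inhibitors of PYK2 kinase phosphorylation of poly-GT substrate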
Protein-tyrosine kinase 2-beta, sequence (Q14289 whole entry): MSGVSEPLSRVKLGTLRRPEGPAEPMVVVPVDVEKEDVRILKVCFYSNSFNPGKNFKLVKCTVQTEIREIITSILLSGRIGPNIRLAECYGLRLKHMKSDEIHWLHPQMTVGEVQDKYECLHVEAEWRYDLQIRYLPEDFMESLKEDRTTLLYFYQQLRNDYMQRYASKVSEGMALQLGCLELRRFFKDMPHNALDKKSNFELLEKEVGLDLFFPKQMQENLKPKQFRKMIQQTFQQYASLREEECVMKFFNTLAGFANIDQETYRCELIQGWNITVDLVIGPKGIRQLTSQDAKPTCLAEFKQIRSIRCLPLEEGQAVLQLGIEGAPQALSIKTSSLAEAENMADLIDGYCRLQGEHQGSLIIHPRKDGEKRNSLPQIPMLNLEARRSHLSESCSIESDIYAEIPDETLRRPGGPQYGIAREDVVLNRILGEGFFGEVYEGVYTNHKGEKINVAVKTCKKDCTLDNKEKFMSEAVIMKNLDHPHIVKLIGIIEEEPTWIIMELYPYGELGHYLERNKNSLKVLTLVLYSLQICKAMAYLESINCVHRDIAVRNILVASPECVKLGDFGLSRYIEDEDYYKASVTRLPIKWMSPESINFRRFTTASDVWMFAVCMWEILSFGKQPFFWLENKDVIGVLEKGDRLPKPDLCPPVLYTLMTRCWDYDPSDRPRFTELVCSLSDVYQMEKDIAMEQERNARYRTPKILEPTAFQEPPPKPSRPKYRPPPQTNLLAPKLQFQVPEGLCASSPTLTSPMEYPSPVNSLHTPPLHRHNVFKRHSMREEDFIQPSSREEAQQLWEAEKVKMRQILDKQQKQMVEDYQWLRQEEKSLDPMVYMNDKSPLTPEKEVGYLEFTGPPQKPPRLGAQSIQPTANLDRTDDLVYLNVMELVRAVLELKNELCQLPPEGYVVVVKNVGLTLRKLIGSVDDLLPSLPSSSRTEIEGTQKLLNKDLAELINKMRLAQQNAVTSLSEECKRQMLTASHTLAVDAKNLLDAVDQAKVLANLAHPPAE

[11] = biological target: T2, Short transient receptor potential channel 4 (Mus musculus, UniProt Q9QUQ5); assay: mouse TRPC4 channel activators, dose response, cell-based, HEK293 TRPC4/mu-opioid, Fluo-4 calcium (AID 434937); type: functional
T2 sequence (Q9QUQ5 whole entry): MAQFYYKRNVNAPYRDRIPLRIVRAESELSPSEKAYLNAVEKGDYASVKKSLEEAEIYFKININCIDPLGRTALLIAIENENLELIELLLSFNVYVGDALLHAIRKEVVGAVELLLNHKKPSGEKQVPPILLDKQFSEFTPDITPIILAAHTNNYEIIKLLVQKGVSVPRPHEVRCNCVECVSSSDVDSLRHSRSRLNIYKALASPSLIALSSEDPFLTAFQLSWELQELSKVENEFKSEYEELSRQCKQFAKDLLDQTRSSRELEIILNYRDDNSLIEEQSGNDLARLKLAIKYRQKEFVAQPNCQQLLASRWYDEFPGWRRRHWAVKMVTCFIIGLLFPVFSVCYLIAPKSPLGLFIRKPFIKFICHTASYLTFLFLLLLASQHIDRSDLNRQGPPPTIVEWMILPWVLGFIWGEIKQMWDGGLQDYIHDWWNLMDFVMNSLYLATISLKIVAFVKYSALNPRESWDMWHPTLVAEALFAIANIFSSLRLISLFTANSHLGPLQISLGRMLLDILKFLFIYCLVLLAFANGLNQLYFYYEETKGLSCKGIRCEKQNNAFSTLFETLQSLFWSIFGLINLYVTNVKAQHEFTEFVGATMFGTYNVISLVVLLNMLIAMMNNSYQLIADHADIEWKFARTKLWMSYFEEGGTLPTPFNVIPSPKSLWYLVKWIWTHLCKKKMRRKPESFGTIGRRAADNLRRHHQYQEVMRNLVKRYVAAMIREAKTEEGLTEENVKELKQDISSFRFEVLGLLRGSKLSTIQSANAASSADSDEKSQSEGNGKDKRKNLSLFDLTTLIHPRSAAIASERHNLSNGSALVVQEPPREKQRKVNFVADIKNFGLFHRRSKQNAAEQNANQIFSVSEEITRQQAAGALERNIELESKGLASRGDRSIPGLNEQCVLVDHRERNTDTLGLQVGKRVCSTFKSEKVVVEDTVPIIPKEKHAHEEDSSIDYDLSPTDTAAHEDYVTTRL

[12] = biological target: 5-hydroxytryptamine receptor 5A (Homo sapiens, UniProt P47898); assay: Counterscreen for agonists of OPRM1-OPRD1 heterodimerization: luminescence-based cell-based high throughput dose response assay to identify agonists of 5-hydroxytryptamine (serotonin) 5A receptor (HTR5A). [Related pubchem assays (depositor defined):AID504326, AID504355, AID504692, AID504904, AID504905]; type: functional
5-hydroxytryptamine receptor 5A, sequence (P47898 whole entry): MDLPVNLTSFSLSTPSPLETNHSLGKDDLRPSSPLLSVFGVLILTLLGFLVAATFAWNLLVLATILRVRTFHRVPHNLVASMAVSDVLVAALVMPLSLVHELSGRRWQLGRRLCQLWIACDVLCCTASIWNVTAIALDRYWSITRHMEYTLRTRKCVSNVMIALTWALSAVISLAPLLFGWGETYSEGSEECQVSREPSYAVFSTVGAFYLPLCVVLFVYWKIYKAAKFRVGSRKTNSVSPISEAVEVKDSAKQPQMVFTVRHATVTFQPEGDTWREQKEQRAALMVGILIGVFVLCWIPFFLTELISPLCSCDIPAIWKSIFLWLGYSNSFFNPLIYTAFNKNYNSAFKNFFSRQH

Galanin receptor type 2 = Galanin receptor type 2 (Homo sapiens, UniProt O43603); assay: Dose Response cell-based high-throughput screening assay to identify agonists of galanin receptor 2 (GALR2). [Related pubchem assays: 864 ]; type: functional
Galanin receptor type 2, sequence (O43603 whole entry): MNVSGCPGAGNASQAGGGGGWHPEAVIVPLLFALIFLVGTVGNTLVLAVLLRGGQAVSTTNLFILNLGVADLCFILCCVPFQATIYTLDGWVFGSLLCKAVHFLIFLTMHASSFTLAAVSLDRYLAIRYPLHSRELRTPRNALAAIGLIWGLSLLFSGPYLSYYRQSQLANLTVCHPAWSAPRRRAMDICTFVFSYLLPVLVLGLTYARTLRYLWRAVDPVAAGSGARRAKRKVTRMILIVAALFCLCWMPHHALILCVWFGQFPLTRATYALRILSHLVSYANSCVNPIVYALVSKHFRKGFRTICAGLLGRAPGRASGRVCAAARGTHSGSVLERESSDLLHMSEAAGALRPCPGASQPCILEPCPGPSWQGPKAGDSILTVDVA

Aminopeptidase N = biological target: T3, Aminopeptidase N (Plasmodium falciparum FcB1/Columbia, UniProt O96935); assay: P. falciparum M1AAP inhibitors, biochemical, fluorogenic H-Leu-NHMec substrate, 1536-well (AID 1445); design: species or system Plasmodium falciparum 3D7, 3D7
T3 sequence (O96935 whole entry): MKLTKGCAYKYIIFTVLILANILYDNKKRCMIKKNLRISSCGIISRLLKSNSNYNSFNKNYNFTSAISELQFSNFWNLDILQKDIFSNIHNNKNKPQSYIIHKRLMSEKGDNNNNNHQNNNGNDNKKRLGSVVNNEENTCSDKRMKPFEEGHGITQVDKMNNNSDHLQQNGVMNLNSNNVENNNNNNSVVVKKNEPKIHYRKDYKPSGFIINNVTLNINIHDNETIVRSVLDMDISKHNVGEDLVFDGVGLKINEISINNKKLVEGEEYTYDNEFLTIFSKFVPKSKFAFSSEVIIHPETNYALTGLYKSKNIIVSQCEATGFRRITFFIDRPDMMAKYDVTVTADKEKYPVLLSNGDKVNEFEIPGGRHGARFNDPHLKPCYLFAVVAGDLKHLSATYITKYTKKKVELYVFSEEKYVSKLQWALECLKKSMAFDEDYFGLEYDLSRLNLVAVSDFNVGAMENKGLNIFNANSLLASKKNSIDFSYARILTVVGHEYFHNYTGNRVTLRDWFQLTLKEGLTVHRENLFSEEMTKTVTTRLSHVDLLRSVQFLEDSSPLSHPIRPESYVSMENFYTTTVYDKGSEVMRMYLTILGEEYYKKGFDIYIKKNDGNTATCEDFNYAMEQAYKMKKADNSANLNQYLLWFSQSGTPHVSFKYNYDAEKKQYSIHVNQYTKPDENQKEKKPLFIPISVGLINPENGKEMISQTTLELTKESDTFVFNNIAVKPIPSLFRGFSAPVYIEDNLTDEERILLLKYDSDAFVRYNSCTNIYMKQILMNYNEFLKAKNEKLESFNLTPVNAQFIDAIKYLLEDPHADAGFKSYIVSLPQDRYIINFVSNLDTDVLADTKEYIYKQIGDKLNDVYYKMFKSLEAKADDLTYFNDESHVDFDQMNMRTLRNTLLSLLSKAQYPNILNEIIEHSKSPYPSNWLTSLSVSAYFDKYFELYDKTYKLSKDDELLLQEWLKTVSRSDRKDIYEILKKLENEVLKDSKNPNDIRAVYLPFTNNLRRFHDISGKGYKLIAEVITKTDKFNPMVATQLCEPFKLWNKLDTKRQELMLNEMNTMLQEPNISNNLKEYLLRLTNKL

Mu-type opioid receptor = Mu-type opioid receptor (Homo sapiens, UniProt P35372); assay: (§1) Counterscreen for agonists of heterodimerization of the mu 1 (OPRM1) and delta 1 (OPRD1) opioid receptors: Luminescence-based cell-based high throughput dose response assay to identify agonists of OPRM1 homodimerization.; type: functional
Mu-type opioid receptor, sequence (P35372 whole entry): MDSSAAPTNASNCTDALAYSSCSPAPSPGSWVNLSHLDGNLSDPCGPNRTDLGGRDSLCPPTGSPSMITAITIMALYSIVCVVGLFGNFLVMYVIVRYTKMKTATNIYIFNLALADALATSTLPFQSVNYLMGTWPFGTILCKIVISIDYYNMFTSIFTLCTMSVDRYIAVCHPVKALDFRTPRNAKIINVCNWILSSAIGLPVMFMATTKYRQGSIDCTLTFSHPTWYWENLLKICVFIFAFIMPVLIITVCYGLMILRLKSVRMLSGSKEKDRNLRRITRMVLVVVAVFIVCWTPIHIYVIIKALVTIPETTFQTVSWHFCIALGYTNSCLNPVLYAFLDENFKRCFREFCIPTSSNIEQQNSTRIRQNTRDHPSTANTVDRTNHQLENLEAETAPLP

[13] = biological target: Delta-type opioid receptor (Homo sapiens, UniProt P41143); assay: as §1, with “of OPRD1” for “of OPRM1”, “homodimerization. [Related pubchem assays (depositor defined):AID504326, AID504355, AID504692, AID504904, AID504905]” for “homodimerization.”; type: functional
Delta-type opioid receptor, sequence (P41143 whole entry): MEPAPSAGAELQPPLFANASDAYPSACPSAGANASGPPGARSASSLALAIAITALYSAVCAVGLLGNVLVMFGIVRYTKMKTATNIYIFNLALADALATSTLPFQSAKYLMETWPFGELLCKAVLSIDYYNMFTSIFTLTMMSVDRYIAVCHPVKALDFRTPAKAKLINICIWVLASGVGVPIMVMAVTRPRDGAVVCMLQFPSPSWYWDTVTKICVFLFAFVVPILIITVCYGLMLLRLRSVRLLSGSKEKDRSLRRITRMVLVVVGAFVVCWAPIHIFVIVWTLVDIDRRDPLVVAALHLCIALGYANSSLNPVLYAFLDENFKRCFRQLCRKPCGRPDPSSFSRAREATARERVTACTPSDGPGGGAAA

[14] = biological target: T4, DNA repair protein RAD52 homolog (Homo sapiens, UniProt P43351); type: functional, biochemical
T4 sequence (P43351 whole entry): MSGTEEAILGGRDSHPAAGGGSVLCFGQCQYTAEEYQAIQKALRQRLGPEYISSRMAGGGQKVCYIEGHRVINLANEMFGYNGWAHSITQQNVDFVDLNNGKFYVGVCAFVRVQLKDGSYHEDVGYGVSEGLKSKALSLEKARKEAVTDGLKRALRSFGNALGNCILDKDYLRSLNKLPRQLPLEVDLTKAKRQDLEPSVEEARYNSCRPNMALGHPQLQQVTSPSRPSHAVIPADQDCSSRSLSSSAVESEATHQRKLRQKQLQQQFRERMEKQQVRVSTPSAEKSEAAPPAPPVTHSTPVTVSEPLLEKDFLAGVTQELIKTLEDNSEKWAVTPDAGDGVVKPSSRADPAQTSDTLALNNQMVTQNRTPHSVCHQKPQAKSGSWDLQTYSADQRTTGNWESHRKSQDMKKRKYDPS

[15] = growth suppression of beta-catenin-knockout colon cells, dose response, cell-based, HCT116, human colon tumor (AID 1045); type: functional;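 also: HCT116 colon tumor cells with beta catenin knocked out; cells exposed to compound for 60 hours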
[16] = cytotoxicity toward NIH3T3 fibroblasts, dose response, counter-screen, cell-based, ATP luminescence, mouse fibroblasts (AID 2010); type: functional;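 also: cells exposed to compound for about 90 hours before reading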
[17] = non-specific cell cytotoxicity, dose response, cytotoxicity control for PAX8 inhibitor project, plate reader, dry powder samples (AID 743021); type: functional, cell-based
[18] = growth suppression of PTEN-null colon cells, dose response, cell-based, HCT116 PTEN knockout (AID 1047); type: functional;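 also: HCT116 colon tumor cells with PTEN knocked out; cells exposed to compound for 60 hours before readout; potency for loss of cell viability measured by luminescence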
INS1 = assay: beta cell apoptosis inhibitors, cytokine rescue, dose response, luminescence, retest (AID 449756); type: functional, cell-based; details: Rattus norvegicus;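 also: cell death triggered by IL-1 beta plus TNF-alpha plus IFN-gamma mixture; protective hits raise ATP signal compared with cytokine alone wells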
Vero [19] = assay: host cell cytotoxicity of antiviral hits, dose response, cytotoxicity control for West Nile virus antiviral project, secondary assay (AID 1650); type: functional; details: Chlorocebus sabaeus
Paired box protein Pax-8 = Paired box protein Pax-8 (Homo sapiens, UniProt Q06710); assay: inhibitors of PAX8-driven TPO luciferase reporter, dose response, RMG-I cells, cherry-pick (AID 687027); type: functional, cell-based;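 also: luciferase reporter driven by Pax8 target thyroperoxidase promoter measured by SteadyGlo luminescence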
Paired box protein Pax-8, sequence (Q06710 whole entry): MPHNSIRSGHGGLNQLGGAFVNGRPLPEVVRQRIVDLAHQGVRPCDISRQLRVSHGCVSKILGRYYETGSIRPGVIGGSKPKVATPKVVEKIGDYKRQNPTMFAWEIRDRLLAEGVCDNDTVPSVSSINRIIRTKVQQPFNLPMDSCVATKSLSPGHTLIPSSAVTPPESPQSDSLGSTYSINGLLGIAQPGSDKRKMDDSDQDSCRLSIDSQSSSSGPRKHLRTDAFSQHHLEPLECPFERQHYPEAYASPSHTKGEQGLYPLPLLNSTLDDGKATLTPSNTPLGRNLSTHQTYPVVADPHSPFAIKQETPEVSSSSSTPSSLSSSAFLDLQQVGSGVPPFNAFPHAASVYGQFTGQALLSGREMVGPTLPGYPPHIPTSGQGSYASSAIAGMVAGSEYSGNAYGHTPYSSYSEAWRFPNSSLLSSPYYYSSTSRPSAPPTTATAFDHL

[20] = inhibitors of intracellular T. cruzi replication, confirmation, NIH3T3 host cells, beta-gal luminescence (AID 2044); type: functional, cell-based;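 also: intracellular parasites grown in NIH/3T3 mouse fibroblasts as host cells; luminescent beta-galactosidase reporter signal from transgenic T. cruzi replicating inside host cells; inhibitors lower the luminescence signal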
HEK293 = assay: inhibitors of LMP1-driven NF-kB reporter, dose response, cell-based, HEK293, luciferase, cherry-pick (AID 588343); type: functional; details: Homo sapiens

In the case of Cc1nc([N+](=O)[O-])c(Br)n1Cc1ccc(Cl)c(Cl)c1, the EC50 (cells [1]) is reported as > 350 µM (not active), the EC50 (BJ [2]) is reported as > 150 µM (inconclusive) and the EC50 (cells [3]) is reported as > 350 µM (not active). For the same compound, the IC50 (Hexokinase HKDC1) was 22.8 µM (inactive), the IC50 [4] was 4.39 µM (active) and the EC50 (BJ [5]) was 9.74 µM (inconclusive). For the same compound, the EC50 (BJ [6]) was > 150 µM (not active), the CC50 (Vero [7]) was 17.5 µM (active) and the IC50 [8] was 0.542 µM (active). For the same compound, the EC50 [9] was 9.66 µM (inconclusive).
In the case of Cc1ccc(C2=N/C(=C\c3cccs3)C(=O)N2Nc2ccccc2)cc1, the IC50 (Ephrin type-A receptor 4) is reported as 2.91 µM (active).
With Cc1n[nH]c(NC=C2C(=O)CC(C)(C)CC2=O)c1-c1ccccc1 the IC50 [10] was 21 µM (not active).
In the case of COc1cc2c3cc1Oc1cc(ccc1O)C[C@@H]1c4c(cc(OC)c(O)c4Oc4ccc(cc4)C[C@H]3N(C)CC2)CCN1C, the EC50 [11] is reported as 1.33 µM (active), the EC50 [12] is reported as 79.2 µM (inactive) and the EC50 (Galanin receptor type 2) is reported as > 55.7 µM (not active). For the same compound, the IC50 (Aminopeptidase N) was 15.2 µM (active), the CC50 (Vero [7]) was 24.6 µM (active) and the EC50 (Mu-type opioid receptor) was > 92.4 µM (inactive). For the same compound, the EC50 [13] was 44.2 µM (inactive) and the AC50 [14] was 35.2 µM (active).
In the case of CCN(CC)S(=O)(=O)c1cc([N+](=O)[O-])ccc1NNC(=O)Nc1ccc(Cl)c(Cl)c1, the EC50 [15] is reported as 7.99 µM (active), the EC50 [16] is reported as > 60 µM (not active) and the AC50 [17] is reported as 3.73 µM (active). For the same compound, the EC50 [18] was 8.3 µM (active), the AC50 (INS1) was 6.79 µM (active) and the CC50 (Vero [19]) was 14.3 µM (active). For the same compound, the AC50 (Paired box protein Pax-8) was 8.91 µM (active), the EC50 [20] was 2.03 µM (active) and the AC50 (HEK293) was 22.9 µM (active).
